Reference: US11413280B2 (The Board of Trustees of the Leland Stanford Junior …, priority 2017, dated 2022)

Tests used:
Format in all cases: cell-based, human
FHIT = assay: Relative FHIT mRNA expression in PAECs (qPCR); conditions: PAEC, 24 hours, low doses (5-15 uM), FIG. 14
Protocol: Human PAEC (Promocell) or human PASMC (Promocell) were grown as monolayers in gelatin-coated dishes in a commercial EC (Promocell) or SMC (Promocell) media, respectively. Cells were passaged at 1:3 ratios and used for experiments from passages 3-8. Transformed lymphocytes (i.e., lymphoblasts) were cultured in RPMI 1640 with 10-15% FBS.
FHIT expression was modulated by RNAi in PA endothelial cells (PAEC). A pool of 4 siRNAs for BMPR2, FHIT, LCK or a non-targeting control pool (Dharmacon) were transfected into PAECs using the RNAi Max kit (Invitrogen) for 48 hours. mRNA knockdown efficiency was determined by qPCR.
For mRNA, total RNA was extracted from whole lung tissue using the RNAeasy Plus Kit (Qiagen) and reverse transcribed into cDNA using random primers with the Taqman cDNA reverse transcription Kit (Applied Biosciences) according to the manufacturer's instructions. For miR, total miR was isolated from whole lung tissue using the Taqman miRNA ABC purification Kit (Applied Biosciences) and was reverse transcribed using specific primers and the Taqman microRNA reverse transcription kit (Applied Biosciences). mRNA and miR expression levels were quantified using Taqman primer/probe sets for the target and normalized to a housekeeping control (mRNA: GAPDH; miR: RNU48). […]

PAEC [1] = assay: Matrigel tube formation assay; conditions: FHIT- and BMPR2-deficient PAECs, 15 μM Enzastaurin for 24 hours
Protocol: (§1) Assays were conducted according to the manufacturer's instructions and as previously described(E1,E9).
Quantified area=% of cells that show nuclear γH2AX staining quantified with automated software (white nuclei=positive stain, grey nuclei=background stain). […] FIGS. 9G-9H, MTT proliferation assay in Enzastaurin-treated (0.5-50 M) in PASMC and PAEC, respectively. (n=3). FIGS. 9I-9J, MTT proliferation assay in Enzastaurin-treated (5 M) siFHIT and siBMPR2 transfected PASMC compared to Ntsi control, respectively. (n=3).
Loss of FHIT and BMPR2 impaired PAECs tube formation 6 hours after cells were seeded in a Matrigel tube formation assay(12) compared to cells treated with control Ntsi (FIG. 9A, FIG. 9B).

PAEC [2] = assay: γH2AX staining (DNA damage); conditions: siBMPR2 and siFHIT PAEC, 10 μM Enzastaurin for 24 hours
Protocol: as §1
Quantified area=% of cells that show nuclear γH2AX staining quantified with automated software (white nuclei=positive stain, grey nuclei=background stain). […] (n=3). […] (n=3).
As a cumulative viability measurement, we quantified caspase3/7 activity, using the luminescent Caspase-Glo®3/7 assay(36) and DNA damage, using histone H2AX phosphorylation by immunofluorescence and quantification as nuclear area staining (%) by confocal microscopy(34, 35, 37). […] PAEC proliferation was assessed via an MTT proliferation assay and hemocytometer cell counts(36).

PAEC [3] = assay: Trypan Blue viability assay and total cell counts

Cn1cc(C2=C(c3cn(C4CCN(Cc5ccccn5)CC4)c4ccccc34)C(=O)NC2=O)c2ccccc21 [Enzastaurin, 3-(1-methyl-1H-indol-3-yl)-4-[1-[1-(pyridin-2-ylmethyl)piperidin-4-yl]-1H-indol-3-yl]-1H-pyrrole-2,5-dione]
FHIT expression at low doses in vitro (FHIT): increased
Defects in tube formation (PAEC [1]): fully reversed the defects in tube formation
DNA damage (nuclear γH2AX staining) induced by FHIT or BMPR2-loss (PAEC [2]): significantly attenuated
Total cell counts (PAEC [3]; Enzastaurin up to 50 μM): increased cell numbers
Cell toxicity by Trypan Blue viability assay (PAEC [3]; varying concentrations of Enzastaurin): did not elicit cell toxicity
